{
  "source": "ChEMBL document CHEMBL1221246",
  "about": "“Structure-activity studies on acetylcholinesterase inhibition in the lycorine series of Amaryllidaceae alkaloids” (Bioorg Med Chem Lett, 2010)",
  "data": [
    {"molecular_target": "T1, Acetylcholinesterase (Homo sapiens, UniProt P22303)", "T1 sequence (P22303 whole entry)": "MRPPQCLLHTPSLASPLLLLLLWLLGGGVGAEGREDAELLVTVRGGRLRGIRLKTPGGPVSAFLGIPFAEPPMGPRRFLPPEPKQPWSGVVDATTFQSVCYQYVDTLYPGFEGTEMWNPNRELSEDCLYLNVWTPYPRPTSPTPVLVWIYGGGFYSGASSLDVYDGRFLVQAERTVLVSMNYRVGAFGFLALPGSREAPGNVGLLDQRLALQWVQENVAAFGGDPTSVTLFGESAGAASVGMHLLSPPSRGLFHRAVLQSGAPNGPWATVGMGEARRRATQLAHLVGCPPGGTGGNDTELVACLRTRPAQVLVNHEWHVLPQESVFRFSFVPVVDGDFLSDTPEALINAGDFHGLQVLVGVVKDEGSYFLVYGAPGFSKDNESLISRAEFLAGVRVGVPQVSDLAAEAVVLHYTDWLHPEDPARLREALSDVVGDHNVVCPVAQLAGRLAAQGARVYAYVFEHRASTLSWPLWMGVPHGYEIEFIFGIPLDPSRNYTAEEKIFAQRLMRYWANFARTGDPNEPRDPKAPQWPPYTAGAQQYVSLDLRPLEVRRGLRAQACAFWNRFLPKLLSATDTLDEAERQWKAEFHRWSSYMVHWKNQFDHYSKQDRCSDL", "test": "Inhibition of AChE at 10 uM by Ellman's assay; call rule not given here", "values": [
      {"smiles": "CC(=O)O[C@H]1[C@H]2c3cc4c(cc3CN3CCC(=C[C@@H]1OC(C)=O)[C@H]23)OCO4", "Ki": "Not Active"},
      {"smiles": "CO[C@H]1C=C[C@@]23c4cc5c(cc4CN(C[C@@H]2O)[C@H]3C1)OCO5", "Ki": "Not Active"},
      {"smiles": "O[C@H]1C=C[C@@]23CCN(Cc4cc5c(cc42)OCO5)[C@@H]3C1", "note": "[CRININE]", "Ki": "Not Active"},
      {"smiles": "COc1cc2c(cc1OC)[C@H]1[C@H]3C(=CC[C@H]1OC2=O)CCN3C", "note": "[HOMOLYCORINE]", "Ki": "Not Active"},
      {"smiles": "O[C@H]1[C@H]2c3cc4c(cc3CN3CCC(=C[C@@H]1O)[C@H]23)OCO4", "note": "[LYCORINE]", "Ki": "Not Active"},
      {"smiles": "CO[C@H]1C=C2[C@H]3CN(Cc4cc5c(cc43)OCO5)[C@H]2C[C@@H]1O", "note": "[MONTANINE]", "Ki": "Not Active"},
      {"smiles": "COc1cc2c(cc1O)[C@@H]1[C@H](O)[C@@H](O)C=C3CCN(C2)[C@H]31", "note": "[PSEUDOLYCORINE]", "Ki": "Not Active"},
      {"smiles": "CO[C@@H]1C=C[C@@]23c4cc5c(cc4CO[C@]2(O)CN(C)[C@H]3C1)OCO5", "note": "[TAZETTINE]", "Ki": "Not Active"}
    ]},
    {"molecular_target": "T1, Acetylcholinesterase", "test": "Inhibition of AChE by Ellman's assay", "units": {"Ki": "nM"}, "values": [
      {"smiles": "CC(C)(C)[Si](C)(C)O[C@H]1C=C2CCN3Cc4cc5c(cc4[C@H]([C@@H]1OC(=O)c1ccccc1)[C@@H]23)OCO5", "Ki": 390},
      {"smiles": "O=C(O[C@H]1[C@H]2c3cc4c(cc3CN3CCC(=C[C@@H]1O)[C@H]23)OCO4)c1ccccc1", "Ki": 540},
      {"smiles": "CC(=O)O[C@H]1C=C2CCN3Cc4cc5c(cc4[C@H]([C@@H]1OC(=O)c1ccccc1)[C@@H]23)OCO5", "Ki": 970},
      {"smiles": "CC(=O)O[C@H]1[C@H]2c3cc4c(cc3CN3CCC(=C[C@@H]1O)[C@H]23)OCO4", "Ki": 430},
      {"smiles": "CC(C)(C)[Si](C)(C)O[C@H]1C=C2CCN3Cc4cc5c(cc4[C@H]([C@@H]1O)[C@@H]23)OCO5", "Ki": 860},
      {"smiles": "CC(=O)O[C@H]1[C@H]2c3cc4c(cc3CN3CCC(=C[C@@H]1O[Si](C)(C)C(C)(C)C)[C@H]23)OCO4", "Ki": 340}
    ]}
  ]
}
